Results from paper PMC9823097, “Dysregulation of PRMT5 in chronic lymphocytic leukemia promotes progression with high risk of Richter’s transformation” (Nature Communications, 2023).
“And” between values parts separate entries of the source, which are not always exact repeats. Equal values may be shown once.

Experiments:
[1] = system: PRMT5 in Mec-1 cell line; test: Cas9-mediated doxycycline-inducible knockout of PRMT5, Mec-1 proliferation; format: cell-based; conditions: +doxy
Source text: Proteins extracted from whole-cell lysates were resolved by SDS-PAGE and transferred on nitrocellulose membrane as previously described. CpG685 oligonucleotide was obtained from the OSU Cytogenetics Core Lab. Antibodies used for immunoblots included anti-human PRMT5 (Abcam #ab109451), GAPDH (Millipore Sigma #MAB374), SDMA (Cell Signaling Technology #13222), c-Myc (Cell Signaling Technology #5605S), and β-Actin (Cell Signaling Technology #4967S). Cas9-mediated doxycycline-inducible knockout of PRMT5 utilized a targeted sgRNA (guide sequence: […], PAM: GGG).

[2] = system: HG3 cells; test: Cell growth curves over 12 days, HG3; format: cell-based; conditions: for anti-proliferative potency compared to PRT382: HG3
Experimental: (§1) Live cells/mL were counted on days 3, 6, 10, and 12. […] The split factor was calculated at indicated time points by dividing the counted cells/mL by 3E5. Cell growth was extrapolated over time by multiplying the subsequent cell count by the previous split factor. Cell growth is plotted as fold change relative to DMSO-treated cells.

[3] = system: Mec-1 cells; test: Cell growth curves over 12 days, Mec-1; format: cell-based; conditions: for anti-proliferative potency compared to PRT382: Mec-1
Experimental: as §1

[4] = system: BRD4 occupancy at the PRMT5 locus; test: ChIP-seq of H3K27Ac and BRD4 binding at the PRMT5 locus; format: cell-based; conditions: vehicle, CpG, or PLX51107 treatment
[5] = system: PRMT5 expression in CLL cells; test: PRMT5 mRNA and protein expression in CpG-stimulated CLL cells upon BRD4 inhibition; format: cell-based, human

C[C@H]1c2cccc(O)c2C(O)=C2C(=O)[C@]3(O)C(O)=C(C(N)=O)C(=O)[C@@H](N(C)C)[C@@H]3[C@@H](O)[C@@H]21 [+doxy]
Rep. 1 Live cells/mL ([1]; 1 days treated): 170000 cells/mL
Rep. 2 Live cells/mL ([1]; 1 days treated): 158000 cells/mL
Rep. 1 Live cells/mL ([1]; 2 days treated): 387000 cells/mL
Rep. 2 Live cells/mL ([1]; 2 days treated): 352000 cells/mL
Rep. 1 Live cells/mL ([1]; 3 days treated): 686000 cells/mL
Rep. 2 Live cells/mL ([1]; 3 days treated): 721000 cells/mL
Rep. 1 Live cells/mL ([1]; 4 days treated): 991000 cells/mL
Rep. 2 Live cells/mL ([1]; 4 days treated): 944000 cells/mL
Rep. 1 Live cells/mL ([1]; 5 days treated): 827000 cells/mL
Rep. 2 Live cells/mL ([1]; 5 days treated): 862000 cells/mL
Rep. 1 Live cells/mL ([1]; 6 days treated): 1180000 cells/mL
Rep. 2 Live cells/mL ([1]; 6 days treated): 1280000 cells/mL

Nc1ncnc2c1ccn2C1OC(C(O)c2ccc(Cl)c(F)c2)C(O)C1O (stereo not shown) [PF-06855800]
Rep 1 Live Cells [Fold Change] ([2]; HG3, 1 nM, day 0): 1 Fold Change
Rep 2 Live Cells [Fold Change] ([2]; HG3, 1 nM, day 0): 1 Fold Change
Rep 1 Live Cells [Fold Change] ([2]; HG3, 1 nM, day 3): 3.4 Fold Change
Rep 2 Live Cells [Fold Change] ([2]; HG3, 1 nM, day 3): 6.6 Fold Change
Rep 1 Live Cells [Fold Change] ([2]; HG3, 1 nM, day 6): 16.32 Fold Change
Rep 2 Live Cells [Fold Change] ([2]; HG3, 1 nM, day 6): 45.98 Fold Change
Rep 1 Live Cells [Fold Change] ([2]; HG3, 1 nM, day 10): 137.904 Fold Change
Rep 2 Live Cells [Fold Change] ([2]; HG3, 1 nM, day 10): 282.777 Fold Change
Rep 1 Live Cells [Fold Change] ([2]; HG3, 1 nM, day 12): 482.664 Fold Change
Rep 2 Live Cells [Fold Change] ([2]; HG3, 1 nM, day 12): 1404.46 Fold Change
Rep 1 Live Cells [Fold Change] ([2]; HG3, 10 nM, day 0): 1 Fold Change
Rep 2 Live Cells [Fold Change] ([2]; HG3, 10 nM, day 0): 1 Fold Change
Rep 1 Live Cells [Fold Change] ([2]; HG3, 10 nM, day 3): 3.27 Fold Change
Rep 2 Live Cells [Fold Change] ([2]; HG3, 10 nM, day 3): 4.767 Fold Change
Rep 1 Live Cells [Fold Change] ([2]; HG3, 10 nM, day 6): 11.445 Fold Change
Rep 2 Live Cells [Fold Change] ([2]; HG3, 10 nM, day 6): 11.6783 Fold Change
Rep 1 Live Cells [Fold Change] ([2]; HG3, 10 nM, day 10): 19.7426 Fold Change
Rep 2 Live Cells [Fold Change] ([2]; HG3, 10 nM, day 10): 14.8315 Fold Change
Rep 1 Live Cells [Fold Change] ([2]; HG3, 10 nM, day 12): 31.5074 Fold Change
Rep 2 Live Cells [Fold Change] ([2]; HG3, 10 nM, day 12): 21.021 Fold Change
Rep 1 Live Cells [Fold Change] ([2]; HG3, 100 nM, day 0): 1 Fold Change
Rep 2 Live Cells [Fold Change] ([2]; HG3, 100 nM, day 0): 1 Fold Change
Rep 1 Live Cells [Fold Change] ([2]; HG3, 100 nM, day 3): 3.157 Fold Change
Rep 2 Live Cells [Fold Change] ([2]; HG3, 100 nM, day 3): 5.133 Fold Change
Rep 1 Live Cells [Fold Change] ([2]; HG3, 100 nM, day 6): 5.956 Fold Change
Rep 2 Live Cells [Fold Change] ([2]; HG3, 100 nM, day 6): 6.365 Fold Change
Rep 1 Live Cells [Fold Change] ([2]; HG3, 100 nM, day 10): 4.824 Fold Change
Rep 2 Live Cells [Fold Change] ([2]; HG3, 100 nM, day 10): 6.047 Fold Change
Rep 1 Live Cells [Fold Change] ([2]; HG3, 100 nM, day 12): 3.339 Fold Change
Rep 2 Live Cells [Fold Change] ([2]; HG3, 100 nM, day 12): 4.755 Fold Change
Rep 1 Live Cells [Fold Change] ([2]; HG3, 1 µM, day 0): 1 Fold Change
Rep 2 Live Cells [Fold Change] ([2]; HG3, 1 µM, day 0): 1 Fold Change
Rep 1 Live Cells [Fold Change] ([2]; HG3, 1 µM, day 3): 3.733 Fold Change
Rep 2 Live Cells [Fold Change] ([2]; HG3, 1 µM, day 3): 5.933 Fold Change
Rep 1 Live Cells [Fold Change] ([2]; HG3, 1 µM, day 6): 6.21 Fold Change
Rep 2 Live Cells [Fold Change] ([2]; HG3, 1 µM, day 6): 5.993 Fold Change
Rep 1 Live Cells [Fold Change] ([2]; HG3, 1 µM, day 10): 3.912 Fold Change
Rep 2 Live Cells [Fold Change] ([2]; HG3, 1 µM, day 10): 5.304 Fold Change
Rep 1 Live Cells [Fold Change] ([2]; HG3, 1 µM, day 12): 2.641 Fold Change
Rep 2 Live Cells [Fold Change] ([2]; HG3, 1 µM, day 12): 3.878 Fold Change
anti-proliferative potency compared to PRT382 ([2]; high doses (1µM)): similar
anti-proliferative potency compared to PRT382 ([2]; lower doses (10nM, 100nM)): more potent
Rep 1 Live Cells [Fold Change] ([3]; Mec-1, 1 nM, day 0): 1 Fold Change
Rep 2 Live Cells [Fold Change] ([3]; Mec-1, 1 nM, day 0): 1 Fold Change
Rep 1 Live Cells [Fold Change] ([3]; Mec-1, 1 nM, day 3): 5.6 Fold Change
Rep 2 Live Cells [Fold Change] ([3]; Mec-1, 1 nM, day 3): 6.6 Fold Change
Rep 1 Live Cells [Fold Change] ([3]; Mec-1, 1 nM, day 6): 24.6 Fold Change
Rep 2 Live Cells [Fold Change] ([3]; Mec-1, 1 nM, day 6): 45.98 Fold Change
Rep 1 Live Cells [Fold Change] ([3]; Mec-1, 1 nM, day 10): 216 Fold Change
Rep 2 Live Cells [Fold Change] ([3]; Mec-1, 1 nM, day 10): 282.777 Fold Change
Rep 1 Live Cells [Fold Change] ([3]; Mec-1, 1 nM, day 12): 1400 Fold Change
Rep 2 Live Cells [Fold Change] ([3]; Mec-1, 1 nM, day 12): 1404.46 Fold Change
Rep 1 Live Cells [Fold Change] ([3]; Mec-1, 10 nM, day 0): 1 Fold Change
Rep 2 Live Cells [Fold Change] ([3]; Mec-1, 10 nM, day 0): 1 Fold Change
Rep 1 Live Cells [Fold Change] ([3]; Mec-1, 10 nM, day 3): 4.77 Fold Change
Rep 2 Live Cells [Fold Change] ([3]; Mec-1, 10 nM, day 3): 4.767 Fold Change
Rep 1 Live Cells [Fold Change] ([3]; Mec-1, 10 nM, day 6): 9.22 Fold Change
Rep 2 Live Cells [Fold Change] ([3]; Mec-1, 10 nM, day 6): 11.6783 Fold Change
Rep 1 Live Cells [Fold Change] ([3]; Mec-1, 10 nM, day 10): 14.1 Fold Change
Rep 2 Live Cells [Fold Change] ([3]; Mec-1, 10 nM, day 10): 14.8315 Fold Change
Rep 1 Live Cells [Fold Change] ([3]; Mec-1, 10 nM, day 12): 6.51 Fold Change
Rep 2 Live Cells [Fold Change] ([3]; Mec-1, 10 nM, day 12): 21.021 Fold Change
Rep 1 Live Cells [Fold Change] ([3]; Mec-1, 100 nM, day 0): 1 Fold Change
Rep 2 Live Cells [Fold Change] ([3]; Mec-1, 100 nM, day 0): 1 Fold Change
Rep 1 Live Cells [Fold Change] ([3]; Mec-1, 100 nM, day 3): 4.7 Fold Change
Rep 2 Live Cells [Fold Change] ([3]; Mec-1, 100 nM, day 3): 5.133 Fold Change
Rep 1 Live Cells [Fold Change] ([3]; Mec-1, 100 nM, day 6): 7 Fold Change
Rep 2 Live Cells [Fold Change] ([3]; Mec-1, 100 nM, day 6): 6.365 Fold Change
Rep 1 Live Cells [Fold Change] ([3]; Mec-1, 100 nM, day 10): 3.48 Fold Change
Rep 2 Live Cells [Fold Change] ([3]; Mec-1, 100 nM, day 10): 6.047 Fold Change
Rep 1 Live Cells [Fold Change] ([3]; Mec-1, 100 nM, day 12): 1.18 Fold Change
Rep 2 Live Cells [Fold Change] ([3]; Mec-1, 100 nM, day 12): 4.755 Fold Change
Rep 1 Live Cells [Fold Change] ([3]; Mec-1, 1 µM, day 0): 1 Fold Change
Rep 2 Live Cells [Fold Change] ([3]; Mec-1, 1 µM, day 0): 1 Fold Change
Rep 1 Live Cells [Fold Change] ([3]; Mec-1, 1 µM, day 3): 3.93 Fold Change
Rep 2 Live Cells [Fold Change] ([3]; Mec-1, 1 µM, day 3): 5.933 Fold Change
Rep 1 Live Cells [Fold Change] ([3]; Mec-1, 1 µM, day 6): 5.81 Fold Change
Rep 2 Live Cells [Fold Change] ([3]; Mec-1, 1 µM, day 6): 5.993 Fold Change
Rep 1 Live Cells [Fold Change] ([3]; Mec-1, 1 µM, day 10): 3.37 Fold Change
Rep 2 Live Cells [Fold Change] ([3]; Mec-1, 1 µM, day 10): 5.304 Fold Change
Rep 1 Live Cells [Fold Change] ([3]; Mec-1, 1 µM, day 12): 1.63 Fold Change
Rep 2 Live Cells [Fold Change] ([3]; Mec-1, 1 µM, day 12): 3.878 Fold Change
anti-proliferative potency compared to PRT382 ([3]; high doses (1µM)): similar
anti-proliferative potency compared to PRT382 ([3]; lower doses (10nM, 100nM)): more potent

Cc1noc(C)c1-c1cnc2c(-c3ccc(C(=O)O)cc3)cn([C@@H](C)c3ccccn3)c2c1 [PLX51107]
BRD4 occupancy at the PRMT5 locus enhancer [4]: lost
PRMT5 protein expression ([5]; 72h 10µM PLX51107, CLL cells stimulated with 21.7 µg/mL CpG, n=5 patients): Reduced
PRMT5 mRNA expression ([5]; 72h 10µM PLX51107, CLL cells stimulated with 21.7 µg/mL CpG, n=8 patients): Reduced
PRMT5 Relative Expression (2-ΔCt) ([5]; individual samples, Supplemental Figure 7C): 1.507 and 1.2928 and 1.349 and 0.5743 and 1.232 and 0.9553 and 1.659 and 0.935
